Experimental data published in PubChem BioAssay (NCI).
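Cells were grown in 96-well plates and exposed to each compound for 48 hours at five concentrations; endpoints were interpolated linearly between bracketing concentrations, or set to the highest concentration if not reached. TGI is the concentration that stops growth completely.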

Experiments:
Assay in all cases: growth of human tumour cells (NCI), 48 h
SF-295 CNS = test system: SF-295 CNS
A549 NSCLC = test system: A549 NSCLC
HOP-62 NSCLC = test system: HOP-62 NSCLC
SN12C renal = test system: SN12C renal
SK-OV-3 ovarian = test system: SK-OV-3 ovarian
MALME-3M melanoma = test system: MALME-3M melanoma
KM12 colon = test system: KM12 colon
T-47D breast = test system: T-47D breast
ACHN renal = test system: ACHN renal
NCI-H226 lung = test system: NCI-H226 lung
NCI/ADR-RES ovarian = test system: NCI/ADR-RES ovarian
EKVX NSCLC = test system: EKVX NSCLC
LOX IMVI melanoma = test system: LOX IMVI melanoma
OVCAR-3 ovarian = test system: OVCAR-3 ovarian
HT29 colon = test system: HT29 colon
MDA-MB-435 = test system: MDA-MB-435
MDA-MB-231 breast = test system: MDA-MB-231 breast
SK-MEL-5 melanoma = test system: SK-MEL-5 melanoma
SF-539 CNS = test system: SF-539 CNS
HCT-15 colon = test system: HCT-15 colon
HS 578T breast = test system: HS 578T breast
BT-549 breast = test system: BT-549 breast
CAKI-1 renal = test system: CAKI-1 renal
TK-10 renal = test system: TK-10 renal
SK-MEL-28 melanoma = test system: SK-MEL-28 melanoma
NCI-H460 lung = test system: NCI-H460 lung
OVCAR-8 ovarian = test system: OVCAR-8 ovarian
DU-145 prostate = test system: DU-145 prostate
HL-60(TB) leukemia = test system: HL-60(TB) leukemia
M14 melanoma = test system: M14 melanoma
MCF7 breast = test system: MCF7 breast
U251 CNS = test system: U251 CNS
MDA-N = test system: MDA-N
COLO 205 colon = test system: COLO 205 colon
A498 renal = test system: A498 renal
OVCAR-4 ovarian = test system: OVCAR-4 ovarian
786-0 renal = test system: 786-0 renal
HCT-116 colon = test system: HCT-116 colon
NCI-H522 lung = test system: NCI-H522 lung
CCRF-CEM leukemia = test system: CCRF-CEM leukemia
UACC-62 melanoma = test system: UACC-62 melanoma
K-562 leukemia = test system: K-562 leukemia
OVCAR-5 ovarian = test system: OVCAR-5 ovarian
UACC-257 melanoma = test system: UACC-257 melanoma
SK-MEL-2 melanoma = test system: SK-MEL-2 melanoma
PC-3 prostate = test system: PC-3 prostate
SNB-19 CNS = test system: SNB-19 CNS
UO-31 renal = test system: UO-31 renal
MOLT-4 leukemia = test system: MOLT-4 leukemia
RPMI-8226 leukemia = test system: RPMI-8226 leukemia
IGROV1 ovarian = test system: IGROV1 ovarian
SF-268 CNS = test system: SF-268 CNS
SR leukemia = test system: SR leukemia
RXF 393 renal = test system: RXF 393 renal
HOP-92 NSCLC = test system: HOP-92 NSCLC
NCI-H23 lung = test system: NCI-H23 lung
SW-620 colon = test system: SW-620 colon
SNB-75 CNS = test system: SNB-75 CNS

SMILES: CCOC(=O)/C=C(/OCC)[C@@H]1C(C(=O)c2ccc(Cl)cc2)[C@H]1/C(=C\C(=O)OCC)OCC (stereo partly specified)
- TGI (SF-295 CNS): > 100 µM
- TGI (A549 NSCLC): > 100 µM
- TGI (HOP-62 NSCLC): > 100 µM
- TGI (SN12C renal): > 100 µM
- TGI (SK-OV-3 ovarian): > 100 µM
- TGI (MALME-3M melanoma): > 100 µM
- TGI (KM12 colon): > 100 µM
- TGI (T-47D breast): > 100 µM
- TGI (ACHN renal): > 100 µM
- TGI (NCI-H226 lung): > 100 µM
- TGI (NCI/ADR-RES ovarian): > 100 µM
- TGI (EKVX NSCLC): > 100 µM
- TGI (LOX IMVI melanoma): > 100 µM
- TGI (OVCAR-3 ovarian): > 100 µM
- TGI (HT29 colon): > 100 µM
- TGI (MDA-MB-435): > 100 µM
- TGI (MDA-MB-231 breast): > 100 µM
- TGI (SK-MEL-5 melanoma): > 100 µM
- TGI (SF-539 CNS): > 100 µM
- TGI (HCT-15 colon): > 100 µM
- TGI (HS 578T breast): > 100 µM
- TGI (BT-549 breast): > 100 µM
- TGI (CAKI-1 renal): > 100 µM
- TGI (TK-10 renal): > 100 µM
- TGI (SK-MEL-28 melanoma): > 100 µM
- TGI (NCI-H460 lung): > 100 µM
- TGI (OVCAR-8 ovarian): > 100 µM
- TGI (DU-145 prostate): > 100 µM
- TGI (HL-60(TB) leukemia): > 100 µM
- TGI (M14 melanoma): > 100 µM
- TGI (MCF7 breast): > 100 µM
- TGI (U251 CNS): > 100 µM
- TGI (MDA-N): > 100 µM
- TGI (COLO 205 colon): > 100 µM
- TGI (A498 renal): > 100 µM
- TGI (OVCAR-4 ovarian): > 100 µM
- TGI (786-0 renal): > 100 µM
- TGI (HCT-116 colon): > 100 µM
- TGI (NCI-H522 lung): > 100 µM
- TGI (CCRF-CEM leukemia): > 100 µM
- TGI (UACC-62 melanoma): > 100 µM
- TGI (K-562 leukemia): > 25.2 µM
- TGI (OVCAR-5 ovarian): > 100 µM
- TGI (UACC-257 melanoma): > 100 µM
- TGI (SK-MEL-2 melanoma): > 100 µM
- TGI (PC-3 prostate): > 100 µM
- TGI (SNB-19 CNS): > 100 µM
- TGI (UO-31 renal): > 100 µM
- TGI (MOLT-4 leukemia): > 100 µM
- TGI (RPMI-8226 leukemia): > 28.8 µM
- TGI (IGROV1 ovarian): > 100 µM
- TGI (SF-268 CNS): > 100 µM
- TGI (SR leukemia): > 23.6 µM
- TGI (RXF 393 renal): > 100 µM
- TGI (HOP-92 NSCLC): > 100 µM
- TGI (NCI-H23 lung): > 100 µM
- TGI (SW-620 colon): > 100 µM
- TGI (SNB-75 CNS): > 100 µM

SMILES: O=C(O)CC1OCC=C2C[N+]3([O-])CCC45c6ccccc6NC4C1C2CC53 (stereo unspecified)
- TGI (SF-295 CNS): > 100 µM
- TGI (A549 NSCLC): > 100 µM
- TGI (HOP-62 NSCLC): > 100 µM
- TGI (SN12C renal): > 100 µM
- TGI (SK-OV-3 ovarian): > 100 µM
- TGI (MALME-3M melanoma): > 100 µM
- TGI (KM12 colon): > 100 µM
- TGI (T-47D breast): > 100 µM
- TGI (ACHN renal): > 100 µM
- TGI (NCI-H226 lung): > 100 µM
- TGI (NCI/ADR-RES ovarian): > 100 µM
- TGI (EKVX NSCLC): > 100 µM
- TGI (LOX IMVI melanoma): > 100 µM
- TGI (OVCAR-3 ovarian): > 100 µM
- TGI (HT29 colon): > 100 µM
- TGI (MDA-MB-435): > 100 µM
- TGI (MDA-MB-231 breast): > 100 µM
- TGI (SK-MEL-5 melanoma): > 100 µM
- TGI (SF-539 CNS): > 100 µM
- TGI (HCT-15 colon): > 100 µM
- TGI (HS 578T breast): > 100 µM
- TGI (BT-549 breast): > 100 µM
- TGI (CAKI-1 renal): > 100 µM
- TGI (TK-10 renal): > 100 µM
- TGI (SK-MEL-28 melanoma): > 100 µM
- TGI (NCI-H460 lung): > 100 µM
- TGI (OVCAR-8 ovarian): > 100 µM
- TGI (DU-145 prostate): > 100 µM
- TGI (HL-60(TB) leukemia): > 100 µM
- TGI (M14 melanoma): > 100 µM
- TGI (MCF7 breast): > 100 µM
- TGI (U251 CNS): > 100 µM
- TGI (MDA-N): > 100 µM
- TGI (COLO 205 colon): > 100 µM
- TGI (A498 renal): > 100 µM
- TGI (OVCAR-4 ovarian): > 100 µM
- TGI (786-0 renal): > 100 µM
- TGI (HCT-116 colon): > 100 µM
- TGI (NCI-H522 lung): > 100 µM
- TGI (UACC-62 melanoma): > 100 µM
- TGI (K-562 leukemia): > 100 µM
- TGI (OVCAR-5 ovarian): > 100 µM
- TGI (UACC-257 melanoma): > 100 µM
- TGI (SK-MEL-2 melanoma): 34.2 µM
- TGI (PC-3 prostate): > 100 µM
- TGI (SNB-19 CNS): > 100 µM
- TGI (UO-31 renal): > 100 µM
- TGI (MOLT-4 leukemia): > 100 µM
- TGI (RPMI-8226 leukemia): > 100 µM
- TGI (IGROV1 ovarian): > 100 µM
- TGI (SF-268 CNS): > 100 µM
- TGI (SR leukemia): > 100 µM
- TGI (RXF 393 renal): > 100 µM
- TGI (HOP-92 NSCLC): > 100 µM
- TGI (NCI-H23 lung): > 100 µM
- TGI (SW-620 colon): > 100 µM

SMILES: CCCCn1c(C)c(C(=O)CC)c(C(=O)NCCN2CCN(c3ccccc3Cl)CC2)c1C
- TGI (SF-295 CNS): 34.6 µM
- TGI (A549 NSCLC): 32.9 µM
- TGI (HOP-62 NSCLC): 40.6 µM
- TGI (SN12C renal): 30.9 µM
- TGI (SK-OV-3 ovarian): 35.7 µM
- TGI (MALME-3M melanoma): 34.4 µM
- TGI (KM12 colon): 37.5 µM
- TGI (T-47D breast): 51.2 µM
- TGI (ACHN renal): 30.2 µM
- TGI (NCI-H226 lung): 37.8 µM
- TGI (NCI/ADR-RES ovarian): 34.3 µM
- TGI (EKVX NSCLC): 33.1 µM
- TGI (LOX IMVI melanoma): 35.6 µM
- TGI (OVCAR-3 ovarian): 48.1 µM
- TGI (HT29 colon): 29.2 µM
- TGI (MDA-MB-435): 36.4 µM
- TGI (MDA-MB-231 breast): 33.8 µM
- TGI (SK-MEL-5 melanoma): 28.7 µM
- TGI (SF-539 CNS): 34.9 µM
- TGI (HCT-15 colon): 31.6 µM
- TGI (HS 578T breast): 58.1 µM
- TGI (BT-549 breast): 30.3 µM
- TGI (CAKI-1 renal): 32.3 µM
- TGI (TK-10 renal): 33.9 µM
- TGI (SK-MEL-28 melanoma): 48.2 µM
- TGI (NCI-H460 lung): 28.9 µM
- TGI (OVCAR-8 ovarian): 35.8 µM
- TGI (DU-145 prostate): 35.4 µM
- TGI (HL-60(TB) leukemia): 49.5 µM
- TGI (M14 melanoma): 33.5 µM
- TGI (MCF7 breast): 36.2 µM
- TGI (U251 CNS): 31.3 µM
- TGI (MDA-N): 31 µM
- TGI (COLO 205 colon): 28.4 µM
- TGI (A498 renal): 32.3 µM
- TGI (OVCAR-4 ovarian): 34.6 µM
- TGI (786-0 renal): 32.5 µM
- TGI (HCT-116 colon): 27.7 µM
- TGI (NCI-H522 lung): 33.3 µM
- TGI (CCRF-CEM leukemia): > 100 µM
- TGI (UACC-62 melanoma): 29.9 µM
- TGI (K-562 leukemia): > 100 µM
- TGI (OVCAR-5 ovarian): 33.3 µM
- TGI (UACC-257 melanoma): 26.3 µM
- TGI (SK-MEL-2 melanoma): 32.1 µM
- TGI (PC-3 prostate): 31.1 µM
- TGI (SNB-19 CNS): 31.3 µM
- TGI (UO-31 renal): 27.1 µM
- TGI (MOLT-4 leukemia): 50.1 µM
- TGI (RPMI-8226 leukemia): 81.8 µM
- TGI (IGROV1 ovarian): 30.9 µM
- TGI (SF-268 CNS): 37.7 µM
- TGI (SR leukemia): 60.1 µM
- TGI (RXF 393 renal): 39.4 µM
- TGI (HOP-92 NSCLC): 27.7 µM
- TGI (NCI-H23 lung): 30.5 µM
- TGI (SW-620 colon): > 100 µM
